Biological target: Lysine-specific histone demethylase 1A (Homo sapiens, UniProt O60341)
Experiment: In Vitro Enzyme Inhibition Assay: The enzymatic assay of LSD1 activity is based on Time Resolved-Fluorescence Resonance Energy Transfer (TR-FRET) detection. […] Plates were read by EnVision Multilabel Reader in TR-FRET mode (excitation at 320 nm, emission at 615 nm and 665 nm) after 1 hour incubation at room temperature.

IC50: < 100 nM
Structure (SMILES): CCn1c(-c2ccc(OC)cc2)c(-c2ccc(C#N)c(F)c2)cc(N2CCC(N)CC2)c1=O
